One assay is filed under the species Homo sapiens. Briefly: Inhibition of LTB4 production from whole human blood. The class given is functional.
The test system of another assay is Mus musculus. The experiment in a line: Ex vivo inhibition of LTB4 production in mouse whole blood following 10 mg/kg p.o. administration. The class given is functional. As to conditions: route oral.
For assay [1], the target named is T1, Leukotriene A-4 hydrolase (Homo sapiens, UniProt P09960).
T1 sequence (P09960 whole entry): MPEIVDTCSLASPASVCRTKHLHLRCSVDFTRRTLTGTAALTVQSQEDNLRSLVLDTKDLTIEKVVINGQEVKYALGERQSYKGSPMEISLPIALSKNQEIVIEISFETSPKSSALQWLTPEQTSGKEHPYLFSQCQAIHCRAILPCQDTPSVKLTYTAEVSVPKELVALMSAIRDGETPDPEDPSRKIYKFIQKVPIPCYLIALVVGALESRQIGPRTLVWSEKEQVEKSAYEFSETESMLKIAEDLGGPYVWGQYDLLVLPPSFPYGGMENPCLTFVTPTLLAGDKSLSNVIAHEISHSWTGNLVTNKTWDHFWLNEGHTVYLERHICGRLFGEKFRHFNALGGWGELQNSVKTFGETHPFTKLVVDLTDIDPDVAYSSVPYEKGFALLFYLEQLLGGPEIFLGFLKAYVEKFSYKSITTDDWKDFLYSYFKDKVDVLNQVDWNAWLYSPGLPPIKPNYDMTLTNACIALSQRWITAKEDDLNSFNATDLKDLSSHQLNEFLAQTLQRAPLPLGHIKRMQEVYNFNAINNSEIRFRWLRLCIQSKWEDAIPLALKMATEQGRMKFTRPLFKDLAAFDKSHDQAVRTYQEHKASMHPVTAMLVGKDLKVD
Briefly: In vitro inhibition of recombinant human leukotriene A4 hydrolase.

Eight molecules from ChEMBL document CHEMBL1136655, “Synthesis of imidazopyridines and purines as potent inhibitors of leukotriene A4 hydrolase” (Bioorg Med Chem Lett, 2003) can be followed below.

A word on the IC50: it is the concentration needed to halve the response being measured. On to `c1ccc(Cc2ccc(OCCn3cccc4ncnc3-4)cc2)cc1`, for which, in the assay listed under Homo sapiens, the IC50 worked out at 690 nM.
As a reminder, the inhibition in vivo is the percentage by which the read-out fell short of the control. Low readings indicate a response near the control, high ones a response far below the control. Molecule `c1ccc(Cc2ccc(OCCn3cnc4ncccc43)cc2)cc1` showed an IC50 in the assay listed under Homo sapiens of 330 nM. In the assay on Mus musculus, this molecule came in with an inhibition in vivo at 10 mg/kg of 18%.
`c1ccc(Cc2ccc(OCCn3cnc4cnccc43)cc2)cc1` gave an IC50 in the assay listed under Homo sapiens of 330 nM. Further, the inhibition in vivo at 10 mg/kg in the assay with Mus musculus turned out to be 64%.
Consider `c1ccc(Cc2ccc(OCCn3cnc4cccnc43)cc2)cc1`, for which the IC50 was 9150 nM in the assay listed under Homo sapiens and above 3000 nM in assay [1].
Regarding `Oc1ccc2ncn(CCOc3ccc(Cc4ccccc4)cc3)c2n1`, the 50% inhibitory concentration (IC50) worked out at 940 nM in the assay filed under Homo sapiens and 500 nM in assay [1]. This molecule displayed an inhibition in vivo at 10 mg/kg in the assay with Mus musculus of 72%.
As for `N#Cc1ccc2c(ncn2CCOc2ccc(Cc3ccccc3)cc2)n1`, the figures for the concentration for half-maximal inhibition (IC50) (in the assay filed under Homo sapiens; in assay [1]) were 150 nM and 0.8 nM, respectively. The same molecule yielded an inhibition in vivo at 10 mg/kg in the assay with Mus musculus of 21%.
On the same counts, the results for `N#Cc1nccc2c1ncn2CCOc1ccc(Cc2ccccc2)cc1` are 100 nM, 31 nM and 84%.
Take `c1ccc(Cc2ccc(OCCn3cnc4ccccc43)cc2)cc1`: the IC50 in the assay listed under Homo sapiens came out at 13200 nM. Testing at 10 mg/kg in the assay on Mus musculus gave an inhibition in vivo of 46%.
